Results: US9630963B2, “Quinolone derivatives as fibroblast growth factor inhibitors” (Principia Biopharma, Inc., priority 2013, dated 2017)

Experiments:
[1] = target: human recombinant FGFR1 (Homo sapiens, UniProt P11362); assay: FGFR family enzymatic activity assay (Caliper-based kinase assay), FGFR1; format: biochemical; conditions: FGFR1 0.5 nM, ATP 100 μM, peptide substrate 1 μM, room temperature 3 h
Text: A Caliper-based kinase assay (Caliper Life Sciences, Hopkinton, Mass.) was used to measure inhibition of FGFR family (FGFR1, FGFR2, FGFR3, FGFR4) kinase activity of a compound of Formula (I′) or (I). […] This value is presented as the IC50.

[2] = system: SNU-16 cells; assay: Inhibition of FGFR2-dependent cell growth (Cell-titer Glo); format: cell-based; conditions: Homo sapiens, SNU16 cells, 72 hrs incubation, cell viability by Cell-titer Glo
Protocol: The cell-based effects of FGFR inhibitors were determined by measuring inhibition of FGFR-dependent cell line growth. […] Percent inhibition of cell growth was calculated as a percentage of untreated cell viability. The percent inhibition was plotted as a function of log compound concentration. The IC50 was then calculated for each compound using Prism software from GraphPad.

Sequence of human recombinant FGFR1 (P11362 22-822): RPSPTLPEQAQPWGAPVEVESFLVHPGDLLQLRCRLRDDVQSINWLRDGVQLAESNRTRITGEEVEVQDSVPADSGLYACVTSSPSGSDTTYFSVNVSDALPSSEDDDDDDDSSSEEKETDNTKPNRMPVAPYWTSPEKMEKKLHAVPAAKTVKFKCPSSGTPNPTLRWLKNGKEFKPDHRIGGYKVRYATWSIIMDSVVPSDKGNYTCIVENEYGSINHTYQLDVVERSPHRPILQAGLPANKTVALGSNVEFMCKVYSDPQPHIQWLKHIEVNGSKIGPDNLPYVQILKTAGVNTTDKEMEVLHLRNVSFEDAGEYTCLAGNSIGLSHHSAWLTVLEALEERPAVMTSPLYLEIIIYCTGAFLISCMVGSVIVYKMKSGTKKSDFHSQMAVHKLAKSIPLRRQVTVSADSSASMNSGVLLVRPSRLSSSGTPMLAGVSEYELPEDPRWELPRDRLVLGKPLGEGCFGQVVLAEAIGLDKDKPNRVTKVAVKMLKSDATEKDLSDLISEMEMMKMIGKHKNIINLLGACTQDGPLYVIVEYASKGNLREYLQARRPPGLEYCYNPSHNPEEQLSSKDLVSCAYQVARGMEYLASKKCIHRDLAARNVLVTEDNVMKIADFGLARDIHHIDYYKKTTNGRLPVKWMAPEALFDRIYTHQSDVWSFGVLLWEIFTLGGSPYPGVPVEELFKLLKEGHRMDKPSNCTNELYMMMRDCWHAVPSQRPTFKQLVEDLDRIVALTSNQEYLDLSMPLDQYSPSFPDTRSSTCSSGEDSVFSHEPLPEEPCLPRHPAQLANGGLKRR

| SMILES | IC50 [1] [nM] | IC50 [2] [nM] |
| --- | --- | --- |
| C=CC(=O)Nc1cccc(CCn2c(=O)c(-c3cc(OC)cc(OC)c3)cc3cnc(NC)nc32)n1 [Example 11, N-(6-(2-(6-(3,5-dimethoxyphenyl)-2-(methylamino)-7-oxopyrido[2,3-d]pyrimidin-8(7H)-yl)ethyl)pyridin-2-yl)acrylamide] | 22.2 | 94.2 |
| C=CS(=O)(=O)Nc1ccc(CCn2c(=O)c(-c3cc(OC)cc(OC)c3Cl)cc3cnc(NC)nc32)cc1 [Example 20, N-(4-(2-(6-(2-chloro-3,5-dimethoxyphenyl)-2-(methylamino)-7-oxopyrido[2,3-d]pyrimidin-8(7H)-yl)ethyl)phenyl)ethenesulfonamide] | 3.4 | 24.3 |
| C=CS(=O)(=O)Nc1cccc(CCn2c(=O)c(-c3cc(OC)cc(OC)c3Cl)cc3cnc(NC)nc32)c1 [Example 21, N-(3-(2-(6-(2-chloro-3,5-dimethoxyphenyl)-2-(methylamino)-7-oxopyrido[2,3-d]pyrimidin-8(7H)-yl)ethyl)phenyl)ethenesulfonamide] | 6.7 | 115 |
| CNc1ncc2cc(-c3cc(OC)cc(OC)c3Cl)c(=O)n(CCc3ccc(NC(=O)/C=C/CN(C)C)cc3)c2n1 [Example 22, (E)-N-(4-(2-(6-(2-chloro-3,5-dimethoxyphenyl)-2-(methylamino)-7-oxopyrido[2,3-d]pyrimidin-8(7H)-yl)ethyl)phenyl)-4-(dimethylamino)but-2-enamide] | 0.4 | 1 |
| CNc1ncc2cc(-c3cc(OC)cc(OC)c3Cl)c(=O)n(CCc3cccc(NC(=O)/C=C/CN(C)C)c3)c2n1 [Example 23, (E)-N-(3-(2-(6-(2-chloro-3,5-dimethoxyphenyl)-2-(methylamino)-7-oxopyrido[2,3-d]pyrimidin-8(7H)-yl)ethyl)phenyl)-4-(dimethylamino)but-2-enamide] | 1.2 | 1 |
| C=CC(=O)Nc1ccc(CCn2c(=O)c(-c3cc(OC)cc(OC)c3Cl)cc3cnc(NCC(C)(C)O)nc32)cc1 [Example 24, N-(4-(2-(6-(2-chloro-3,5-dimethoxyphenyl)-2-((2-hydroxy-2-methylpropyl)amino)-7-oxopyrido[2,3-d]pyrimidin-8(7H)-yl)ethyl)phenyl)acrylamide] | 1.7 | 1.8 |
| C=CC(=O)Nc1ccc(CCn2c(=O)c(-c3cc(OC)cc(OC)c3Cl)cc3cnc(N)nc32)cc1 [Example 27, N-(4-(2-(2-amino-6-(2-chloro-3,5-dimethoxyphenyl)-7-oxopyrido[2,3-d]pyrimidin-8(7H)-yl)ethyl)phenyl)acrylamide] | 0.9 | 7.4 |
| C=CC(=O)Nc1ccc(CCn2c(=O)c(-c3cc(OC)cc(OC)c3Cl)cc3cnc(NCC(C)(C)O)nc32)cn1 [Example 28, N-(5-(2-(6-(2-chloro-3,5-dimethoxyphenyl)-2-((2-hydroxy-2-methylpropyl)amino)-7-oxopyrido[2,3-d]pyrimidin-8(7H)-yl)ethyl)pyridin-2-yl)acrylamide] | 4.3 | 3.8 |
| C=CC(=O)Nc1ccc(CCn2c(=O)c(-c3cc(OC)cc(OC)c3Cl)cc3cnc(NCCN(CC)CC)nc32)cn1 [Example 29, N-(5-(2-(6-(2-chloro-3,5-dimethoxyphenyl)-2-((2-(diethylamino)ethyl)amino)-7-oxopyrido[2,3-d]pyrimidin-8(7H)-yl)ethyl)pyridin-2-yl)acrylamide] | 49.3 | – |
| C=CC(=O)Nc1ccc(CCn2c(=O)c(-c3cc(OC)cc(OC)c3Cl)cc3cnc(NCC(C)(C)C)nc32)cn1 [Example 30, N-(5-(2-(6-(2-chloro-3,5-dimethoxyphenyl)-2-(neopentylamino)-7-oxopyrido[2,3-d]pyrimidin-8(7H)-yl)ethyl)pyridin-2-yl)acrylamide] | 5.1 | 5 |
| C=CC(=O)Nc1ccc(CCn2c(=O)c(-c3cc(OC)cc(OC)c3Cl)cc3cnc(NCCN4CCOCC4)nc32)cn1 [Example 31, N-(5-(2-(6-(2-chloro-3,5-dimethoxyphenyl)-2-(2-morpholinoethylamino)-7-oxopyrido[2,3-d]pyrimidin-8(7H)-yl)ethyl)pyridin-2-yl)acrylamide] | 1.4 | 3.6 |
| C=CC(=O)Nc1ccc(CCn2c(=O)c(-c3cc(OC)cc(OC)c3Cl)cc3cnc(NCCCCN(CC)CC)nc32)cn1 [Example 32, N-(5-(2-(6-(2-chloro-3,5-dimethoxyphenyl)-2-((4-(diethylamino)butyl)amino)-7-oxopyrido[2,3-d]pyrimidin-8 (7H)-yl)ethyl)pyridin-2-yl)acrylamide] | 1.2 | 6.7 |
| C=CC(=O)Nc1nc(CCn2c(=O)c(-c3cc(OC)cc(OC)c3Cl)cc3cnc(NC)nc32)cs1 [Example 33, N-(4-(2-(6-(2-chloro-3,5-dimethoxyphenyl)-2-(methylamino)-7-oxopyrido[2,3-d]-pyrimidin-8(7H)-yl)ethyl)thiazol-2-yl)acrylamide] | 4.1 | 32.7 |
| C=CC(=O)Nc1cccc(CCn2c(=O)c(-c3cc(OC)cc(OC)c3Cl)cc3cnc(NCCN4CCOCC4)nc32)c1 [Example 35, N-(3-(2-(6-(2-chloro-3,5-dimethoxyphenyl)-2-((2-morpholinoethyl)amino)-7-oxo-pyrido[2,3-d]pyrimidin-8(7H)-yl)ethyl)phenyl)acrylamide] | 6 | 3.6 |
| C=CC(=O)Nc1ccc(CCn2c(=O)c(-c3cc(OC)cc(OC)c3Cl)cc3cnc(NCCCN(CC)CC)nc32)cc1 [Example 40, N-(4-(2-(6-(2-chloro-3,5-dimethoxyphenyl)-2-((3-(diethylamino)propyl)amino)-7-oxopyrido[2,3-d]pyrimidin-8(7H)-yl)ethyl)phenyl)acrylamide] | 2.4 | 3 |
| C=CC(=O)Nc1cccc(CCn2c(=O)c(-c3cc(OC)cc(OC)c3F)cc3cnc(NCCCCN(CC)CC)nc32)c1 [Example 42, N-(3-(2-(6-(2-fluoro-3,5-dimethoxyphenyl)-2-(4-diethylaminobutylamino)-7-oxopyrido[2,3-d]pyrimidin-8(7H)-yl)ethyl)phenyl)acrylamide] | 1.8 | – |
| C=CC(=O)Nc1cn(CCn2c(=O)c(-c3cc(OC)cc(OC)c3Cl)cc3cnc(NC)nc32)cn1 [Example 48, N-(1-(2-(6-(2-chloro-3,5-dimethoxyphenyl)-2-(methylamino)-7-oxopyrido[2,3-d]-pyrimidin-8(7H)-yl)ethyl)-1H-imidazol-4-yl)acrylamide] | 48 | – |
| C=CC(=O)Nc1ccc(CCn2c(=O)c(-c3cc(OC)cc(OC)c3Cl)cc3cnc(NCCN4C[C@@H](C)N[C@@H](C)C4)nc32)cc1 [Example 85, N-(4-(2-(6-(2-chloro-3,5-dimethoxyphenyl)-2-((2-((3S,5R)-3,5-dimethylpiperazin-1-yl)ethyl)amino)-7-oxopyrido[2,3-d]pyrimidin-8(7H)-yl)ethyl)phenyl)acrylamide] | 1.2 | – |
| C=CC(=O)Nc1ccc(CCn2c(=O)c(-c3cc(OC)cc(OC)c3Cl)cc3cnc(NC(C)(CO)CO)nc32)cc1 [Example 95, N-(4-(2-(6-(2-chloro-3,5-dimethoxyphenyl)-2-((1,3-dihydroxy-2-methylpropan-2-yl)amino)-7-oxopyrido[2,3-d]pyrimidin-8(7H)-yl)ethyl)phenyl)acrylamide] | 6.2 | – |
| C=CC(=O)Nc1ccc(CCn2c(=O)c(-c3cc(OC)cc(OC)c3Cl)cc3cnc(NCC4(O)CCN(C)CC4)nc32)cc1 [Example 96, N-(4-(2-(6-(2-chloro-3,5-dimethoxyphenyl)-2-(((4-hydroxy-1-methylpiperidin-4-yl)methyl)-amino)-7-oxopyrido[2,3-d]pyrimidin-8(7H)-yl)ethyl)phenyl)acrylamide] | 9.8 | – |
| C=CC(=O)Nc1ccc(CCn2c(=O)c(-c3c(Cl)c(OC)cc(OC)c3Cl)cc3cnc(NC(CC)(CO)CO)nc32)nc1 [Example 100, N-(6-(2-(6-(2,6-dichloro-3,5-dimethoxyphenyl)-2-((1-hydroxy-2-(hydroxymethyl)-butan-2-yl)amino)-7-oxopyrido[2,3-d]pyrimidin-8(7H)-yl)ethyl)pyridin-3-yl)acrylamide] | – | 26.2 |
| C=CC(=O)Nc1ccc(CCn2c(=O)c(-c3c(Cl)cccc3Cl)cc3cnc(NC)nc32)cc1 [Example 106, N-(4-(2-(6-(2,6-dichlorophenyl)-2-(methylamino)-7-oxopyrido[2,3-d]pyrimidin-8(7H)-yl)ethyl)phenyl)acrylamide] | 29.6 | – |
| C=CC(=O)Nc1ccc(CCn2c(=O)c(-c3c(Cl)cccc3Cl)cc3cnc(NC)nc32)nc1 [Example 107, N-(6-(2-(6-(2,6-dichlorophenyl)-2-(methylamino)-7-oxopyrido[2,3-d]pyrimidin-8(7H)-yl)ethyl)pyridin-3-yl)acrylamide] | 12.5 | – |
| C=CC(=O)Nc1ccc(CCn2c(=O)c(-c3cc(OC)cc(OC)c3Cl)cc3cnc(Nc4ccccn4)nc32)nc1 [Example 108, N-(6-(2-(6-(2-chloro-3,5-dimethoxyphenyl)-7-oxo-2-(pyridin-2-ylamino)pyrido[2,3-d]pyrimidin-8(7H)-yl)ethyl)pyridin-3-yl)acrylamide] | 8.2 | – |
| C=CC(=O)Nc1ccc(CCn2c(=O)c(-c3cc(OC)cc(OC)c3Cl)cc3cnc(NCC(C)(C)N4CCOCC4)nc32)cc1 [Example 110, N-(4-(2-(6-(2-chloro-3,5-dimethoxyphenyl)-2-((2-methyl-2-morpholinopropyl)-amino)-7-oxopyrido[2,3-d]pyrimidin-8(7H)-yl)ethyl)phenyl)acrylamide] | 1.9 | – |
| C=CC(=O)Nc1ccc(CCn2c(=O)c(-c3cc(OC)cc(OC)c3Cl)cc3cnc(NCCN4CCC(F)(F)CC4)nc32)cc1 [Example 111, N-(4-(2-(6-(2-chloro-3,5-dimethoxyphenyl)-2-((2-(4,4-difluoropiperidin-1-yl)-ethyl)amino)-7-oxopyrido[2,3-d]pyrimidin-8(7H)-yl)ethyl)phenyl)acrylamide] | 3.4 | – |
